# In patent US6495525B1, “VLA-4 inhibitor: oMePUPA-V” (Biogen, Inc., priority 1998, dated 2002):
# Assays:
# [1] = biological target: VLA-4 (Homo sapiens, UniProt P05556+P13612); assay: CS1 Cell Adhesion Assay, Jurkat cells to CS1/BSA conjugate; format: cell-based; design: endogenous in cells; host or cells: Jurkat (human T cell line); details: in the presence of Mn+2
# Procedure: The peptide NH2-cysteine-tyrosine-CS-1 was synthesized and coupled to BSA-SMCC (SMCC is a heterobifunctional crosslinker which reacts with free amino groups on BSA and the sole cysteine of the synthetic peptide) at a CS1/BSA ratio of 10:1. Wells were coated overnight with 100 μL of conjugate diluted to a final concentration of 1 ug/ml. The next day the wells were blocked with BSA in PBS for one hour and then washed three times.
# The human T cell line, Jurkat, was labeled with 2 μM BCECF-AM, a fluorescent dye (2′, 7′, bis-(2-carboxyethyl)-5 and -6) carboxy fluorescein acetoxymethyl ester (Molecular Probes Inc., Eugene, Oregon; catalog #B-1150) that is internalized and deesterified thus trapping the dye within live cells. Jurkat cells (1×10^5 cells/well) in buffer containing 1 mM Mn^+2 were added to the coated plates in the presence of three-fold serial dilutions of inhibitor. Each concentration was assayed in duplicate. After 30 minutes at room temperature, the plates were inverted and washed three times or until no cells were adherent to control wells coated with BSA alone. CS1-adherent cells were quantitated in a Cytofluor fluorescent platereader using an excitation wavelength of 485 nm and an emission wavelength of 530 nm.
# Cells adhered to CS1/BSA in the absence of compound served as the 0% inhibition control whereas cells adhering to BSA alone served as the 100% inhibition control. IC50's were calculated using Deltagraph software, version 5.
# [2] = Bulk / drug substance stability (HPLC); format: physicochemical
# Procedure: At four weeks, one or two degradation peaks became detectable at 40° C. and 50° C., but the level of each impurity peak was still less than 0.02%.
# Chain of VLA-4 (P13612 34-1032): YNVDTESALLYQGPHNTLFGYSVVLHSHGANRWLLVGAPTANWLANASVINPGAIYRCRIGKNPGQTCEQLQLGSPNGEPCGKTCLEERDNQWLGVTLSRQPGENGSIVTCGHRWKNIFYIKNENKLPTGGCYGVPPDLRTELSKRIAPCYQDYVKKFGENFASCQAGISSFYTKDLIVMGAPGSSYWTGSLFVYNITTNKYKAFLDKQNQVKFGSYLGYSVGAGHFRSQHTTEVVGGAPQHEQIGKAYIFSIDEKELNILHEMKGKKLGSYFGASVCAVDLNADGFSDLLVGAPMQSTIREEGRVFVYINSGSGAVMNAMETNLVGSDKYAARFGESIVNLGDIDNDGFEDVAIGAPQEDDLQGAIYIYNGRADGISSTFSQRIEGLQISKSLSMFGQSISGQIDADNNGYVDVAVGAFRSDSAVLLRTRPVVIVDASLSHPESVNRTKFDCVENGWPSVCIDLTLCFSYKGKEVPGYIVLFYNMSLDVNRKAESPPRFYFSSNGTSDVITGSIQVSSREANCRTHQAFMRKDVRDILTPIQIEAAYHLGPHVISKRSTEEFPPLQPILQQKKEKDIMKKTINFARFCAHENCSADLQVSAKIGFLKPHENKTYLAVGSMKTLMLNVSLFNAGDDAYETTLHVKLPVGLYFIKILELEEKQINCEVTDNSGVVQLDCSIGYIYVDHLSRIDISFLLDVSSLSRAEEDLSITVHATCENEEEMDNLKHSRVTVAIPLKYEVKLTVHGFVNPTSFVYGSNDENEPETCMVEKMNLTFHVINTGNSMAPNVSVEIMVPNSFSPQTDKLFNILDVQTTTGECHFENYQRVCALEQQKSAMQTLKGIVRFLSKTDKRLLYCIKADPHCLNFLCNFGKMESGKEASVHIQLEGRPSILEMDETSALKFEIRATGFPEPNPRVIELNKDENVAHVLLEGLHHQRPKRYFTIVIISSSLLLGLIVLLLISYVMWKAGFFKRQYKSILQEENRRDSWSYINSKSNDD
# Chain of VLA-4 (P05556 21-798): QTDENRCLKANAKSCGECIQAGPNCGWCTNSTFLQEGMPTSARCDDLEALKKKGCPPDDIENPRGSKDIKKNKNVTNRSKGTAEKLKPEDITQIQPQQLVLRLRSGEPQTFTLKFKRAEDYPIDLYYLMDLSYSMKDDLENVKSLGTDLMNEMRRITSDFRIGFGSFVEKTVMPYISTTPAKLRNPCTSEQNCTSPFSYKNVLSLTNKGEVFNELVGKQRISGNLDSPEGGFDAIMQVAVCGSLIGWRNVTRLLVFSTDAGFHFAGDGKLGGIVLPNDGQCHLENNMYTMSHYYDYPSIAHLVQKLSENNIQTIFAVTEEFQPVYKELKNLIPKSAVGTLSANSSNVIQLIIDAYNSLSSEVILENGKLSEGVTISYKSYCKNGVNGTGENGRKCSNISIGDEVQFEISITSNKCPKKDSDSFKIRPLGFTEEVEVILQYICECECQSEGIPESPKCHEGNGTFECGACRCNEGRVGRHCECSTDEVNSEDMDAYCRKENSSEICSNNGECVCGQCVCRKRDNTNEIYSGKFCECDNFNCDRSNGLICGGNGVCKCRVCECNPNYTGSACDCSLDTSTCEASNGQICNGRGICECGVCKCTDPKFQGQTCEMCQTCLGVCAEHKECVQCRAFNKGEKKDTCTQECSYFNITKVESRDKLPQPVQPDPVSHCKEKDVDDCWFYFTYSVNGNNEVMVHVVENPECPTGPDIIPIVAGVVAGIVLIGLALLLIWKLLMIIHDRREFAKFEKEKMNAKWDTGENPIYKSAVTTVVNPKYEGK
"level of each impurity (degradation) peak ([2]; four weeks, 40° C. and 50° C.)","degradation on storage (in words) ([2]; two weeks, 40° C. closed vial, 50° C. closed vial, 25° C., RH 60%, 40° C., RH 75%)",SMILES,blocking of Jurkat cell adhesion to CS1 (in words) [1]
,,"O=C(O)CN(CCN(CC(=O)O)CC(=O)O)CC(=O)O [EDTA, reference compound]",blocked completely
less than 0.02%,No degradation,Cc1ccccc1NC(=O)Nc1ccc(CC(=O)N2CCC[C@@H]2C(=O)NC(C)CC(=O)O)cc1 (stereo partly drawn) [oMePUPA-V],
